Assay results as given in patent US20250129331A1, “MEDIUM COMPOSITION FOR CULTURE OF EXTRAEMBRYONIC ENDODERM STEM CELLS” (SEOUL NATIONAL UNIVERSITY R&DB FOUNDATION, priority 2023, published 2025).
Entries after “also recorded” stand apart in the source; their conditions may differ.

B1: Act A: activin A (R&D Systems) (protein, UniProt P08476 311-426, looked up)
Inhibin beta A chain: GLECDGKVNICCKKQFFVSFKDIGWNDWIIAPSGYHANYCEGECPSHIAGTSGSSLSFHSTVINHYRMRGHSPFANLKSCCVPTKLRPMSMLYYDDGQNIIKKDIQNMIVEECGCS
modifications: Inhibin beta A chain

Legend:
Assay type in all cases: cell-based, pig
[1] = test system: porcine XEN cells; assay: Withdrawal of signaling molecules or supplements from porcine XEN cell medium (morphology, AP staining, GATA6 ICC); details: for colony morphology / proliferation on withdrawal of the factor: factor withdrawn from medium with B27, CHIR, FGF2, LIF, Act A, FIG. 3a; for AP staining and GATA6 expression on withdrawal of the factor: factor withdrawn, FIG. 3b, 3c
Description: Before staining, all cell samples were pre-cultured at 4° C. for 10 minutes and fixed with 4% paraformaldehyde for 15 minutes. After washing with Dulbecco's Phosphate Buffered Saline (DPBS) (Welgene), the fixed cells were stained with a buffer solution containing nitro blue tetrazolium chloride and 5-bromo-4-chloro-3-indolyl phosphate toluidine salt stock solution (Roche; Basel, Switzerland) at room temperature for 30 minutes. Stained cells were observed under an inverted microscope.
For immunostaining, the cells were fixed in 4% (w/v) paraformaldehyde. After washing with Dulbecco's Phosphate Buffered Saline (DPBS), the fixed cells were treated with 0.2% Triton-X100 (Sigma-Aldrich) at 4° C. for 2 hours. The cells were then treated with Dulbecco's Phosphate Buffered Saline (DPBS) containing 10% (v/v) goat or donkey serum for 1 hour to prevent non-specific binding. Serum-treated cells were cultured with primary antibodies at 4° C. for 24 hours. The primary antibodies used were as follows: rabbit anti-SOX2 (1:200, Millipore; AB5603), rabbit anti-NANOG (1:200, PeproTech; Rocky Hill, NJ, USA; 500-P236), chicken anti-OCT4 (1:100, Abcam; Cambridge, UK; ab134218), goose anti-GATA6 (15 μg/mL; R&D systems; AF1700), goose anti-SOX17 (1:200, R&D systems; AF1924), and rabbit anti-GATA4 (1:200, Abcam; ab84593). After incubation with primary antibodies, the cells were treated with Alexa Fluor-conjugated secondary antibodies at 4° C. for 24 hours. Nuclei were stained with Hoechst 33342 (Molecular Probes; Eugene, OR, USA). Images of stained cells were taken using a TE2000-U inverted fluorescence microscope (Nikon; Tokyo, Japan).
FIGS. 3a, 3b and 3c show changes in the withdrawal of signaling molecules or supplements for XEN cells.
In order to optimize the culture system of porcine XEN cells, B27 supplement, CHIR, FGF2, LIF or Act A was withdrawn from the medium during maintenance, and essential growth factors and signaling molecules were identified. Colonies were morphologically analyzed (FIG. 3a). […] In order to verify the responsiveness to these factors, AP staining and ICC for GATA6, which is a representative XEN cell marker, were performed to support the morphological analysis results (FIGS. 3b and 3c).

[2] = test system: porcine XEN cells; assay: Culture of porcine XEN cells under various concentrations of essential factors (colony number, qPCR); details: for concentration range appropriate for XEN cell culture: 7 days, colony number and qPCR of GATA6, SALL4, SPARC
Description: Total RNA was extracted using TRIzol reagent (Invitrogen; Carlsbad, USA) and cDNA was synthesized using High-Capacity RNA-to-cDNA Kit (Applied Biosystems; Waltham, MA, USA). cDNA was amplified using the primer sets listed in Table 1 below and PowerSYBR® Green PCR Master Mix (Applied Biosystems).
In addition, in order to fine-tune the culture system, porcine XEN cells were cultured under various concentrations of essential factors including FGF2, LIF and CHIR99021.

[3] = test system: porcine XEN cells; assay: Screening of serum-free culture conditions (signaling molecules, KSR, B27) for porcine XEN cells; details: FIG. 2a
Description: Porcine XEN cells were cultured under various conditions. Each of six fetal bovine serum (FBS) (three different batches purchased from Hyclone, Biowest, TCB and Genedepot) was applied to maintain porcine XEN cells. In addition, several signaling molecules and supplements were added to the basal medium supplemented with 15% (v/v), 10% (v/v) or 5% (v/v) knockout serum replacement (KSR) (Gibco; Gaithersburg, MD, USA) and tested. Factors tested were fibroblast growth factor 2 (FGF2) (R&D Systems; Minneapolis, MN, USA), human recombinant leukemia inhibitory factor (hrLIF) (Millipore; MA, USA), 5 ng/ml activin A (Activin A; R&D Systems), CHIR99021 (Cayman chemical; Ann Arbor, MI, USA), which is a GSK-3B inhibitor, and 1×B27 supplement (Gibco). The basal medium was a DMEM/F12 based medium, which consisted of 1× Glutamax, 0.1 mM β-mercaptoethanol and 1× antibiotic-antimycotic (all of which are manufactured by Gibco). The medium was changed every 24 hours and cultured under conditions of 5% CO2, 5% O2 and 38° C.
The present inventors performed screening of various factors in a DMEM/F12-based KSR-containing medium, which is commonly used for a serum-free medium in stem cells.

| Molecule | colony morphology / proliferation on withdrawal of the factor [1] | AP staining and GATA6 expression on withdrawal of the factor [1] | concentration range appropriate for XEN cell culture [2] | doubling time ([3]; DMEM/F12-based KSR-containing medium, factor alone) | proliferation / growth of XEN cells ([3]; DMEM/F12-based KSR-containing serum-free medium, 2b) | number of XEN colonies ([2]; low concentration of the factor, FIG. 4a, 4b) | self-renewal of porcine XEN cells ([1]; high concentration, control versus Act A withdrawn) |
| --- | --- | --- | --- | --- | --- | --- | --- |
| Cc1c[nH]c(-c2cnc(NCCNc3ccc(C#N)cn3)nc2-c2ccc(Cl)cc2Cl)n1 [CHIR99021, reference compound] | colony boundaries collapsed and cell density within colonies decreased | detected locally | 0.5 to 4.5 µM |  |  |  |  |
| FGF2: fibroblast growth factor 2 (FGF2) (R&D Systems) | no colonies after 4 days | detected locally | 10 to 100 ng/mL | prolonged | insufficient to proliferate XEN cells | few colonies were detected |  |
| LIF: human recombinant leukemia inhibitory factor (hrLIF) (Millipore) | cell proliferation was inhibited | detected locally; also recorded: intense GATA6 expression only in the colony center | 0.1 to 20 ng/mL |  |  |  |  |
| B1 |  | evenly positive |  |  |  |  | inhibits the self-renewal |
